Assay results taken from US6028198A (priority 1993, dated 2000).

Assays:
[1] = design: species or system Japanese white rabbit; details: rabbit, in vivo; for Equivalent dose (ED50), preventing adversive circling syndrome in rabbits: po
[2] = design: species or system domestic cat; details: in vivo; for Equivalent dose (ED50), preventing motion sickness-like syndrome in cats: cat, po
[3] = design: species or system human (sailor volunteers); details: in vivo, po
[4] = design: species or system human (medical worker volunteers); details: in vivo, po
[5] = design: species or system human (volunteers); details: in vivo
[6] = design: species or system human (volunteers); details: in vivo; remark: listed apart in the source
[7] = design: species or system human; details: in vivo
[8] = mouse, in vivo
[9] = mouse, in vivo; remark: listed apart in the source
[10] = mouse, in vivo; remark: listed apart in the source
[11] = in vivo

OC(CCCN1CCCCC1)(c1ccccc1)c1ccccc1 [Diphenidol]
C/A (ratio of ED50 of diphenidol to that of the composition), adversive circling in rabbits [1]: > 115 | Equivalent dose (ED50), preventing adversive circling syndrome in rabbits [1]: > 50 mg/kg | Equivalent dose (ED50), preventing motion sickness-like syndrome in cats [2]: 20.18 mg/kg | C/A (ratio of ED50 of diphenidol to that of the composition), motion sickness-like syndrome in cats [2]: 91.3 | Ineffective rate, Ship [3]: 10.0% | Significantly effective rate, Ship [3]: 66.7% | Total effective rate, Ship [3]: 76.7% | Ineffective rate, Bus [4]: 18.2% | Significantly effective rate, Bus [4]: 49.1% | Total effective rate, Bus [4]: 63.6% | Effect on changes of electronystagmogram [5]: obvious efficacy | Nystagmus after rotation, postmedication ([5]; po): 11.2 ± 6.2 degree/s | Nystagmus during rotation, postmedication ([5]; po): 6.9 ± 3.4 degree/s | Effect on changes of electrogastrogram of body of stomach and gastric antrum [6]: obvious efficacy | Amplitude of electrogastrogram of antrum of stomach, postmedication ([6]; po): 414 ± 265 μV | Amplitude of electrogastrogram of body of stomach, postmedication ([6]; po): 396 ± 227 μV | Total effective, significantly effective and ineffective rates compared with placebo [7]: significantly different from those of the placebo group | C/A (ratio of ED50), potentiating sodium pentobarbital in mice [8]: 6.9 | C/A (ratio of ED50), inhibiting salivary secretion in mice [9]: 13.6 | C/A (ratio of ED50), mydriatic effect in mice [10]: 10.5 | Incidence of somnolence [11]: 18.7%

CN1[C@@H]2C[C@@H](OC(=O)[C@H](CO)c3ccccc3)C[C@H]1[C@@H]1O[C@@H]12 [Scopolamine]
B/A (ratio of ED50 of scopolamine to that of the composition), adversive circling in rabbits [1]: 0.30 | Equivalent dose (ED50), preventing adversive circling syndrome in rabbits [1]: 0.129 mg/kg | Equivalent dose (ED50), preventing motion sickness-like syndrome in cats [2]: 0.059 mg/kg | B/A (ratio of ED50 of scopolamine to that of the composition), motion sickness-like syndrome in cats [2]: 0.30 | B/A (ratio of ED50), potentiating sodium pentobarbital in mice [8]: 0.24 | B/A (ratio of ED50), inhibiting salivary secretion in mice [9]: 0.13 | B/A (ratio of ED50), mydriatic effect in mice [10]: 0.072
